Measurements reported in patent US12673946B2, “Pyrimidin-4(3H)-one derivatives as TRPV4 antagonists” (RaQualia Pharma Inc., priority 2020, dated 2026).

Molecular target: T1, human TRPV4 (Homo sapiens, UniProt Q9HBA0)
T1 construct: host or cells: tetracycline-inducible Flp-In T-REx 293 cells
Assay: Hypotonicity-induced Ca2+ influx (Fluo-4, FDSS)
Assay type: cell-based
Method: Hypotonicity-Induced Ca^2+ Influx
TRPV4 channel activation/opening results in an influx of Ca^2+ (Liedtke, W. et al., 2000 (NPL 1)). The resulting changes in intracellular calcium are monitored using a Ca^2+ sensitive fluorescent dye Fluo-4 (Invitrogen). Dye loaded cells are treated with the test compounds for 5 minutes prior to the addition of a hypotonic solution and the inhibition of the hypotonicity-induced activation is recorded.
Forty microL of tetracycline-inducible Flp-In T-REx 293 cells (Invitrogen) stably expressing human TRPV4 are seeded onto the poly-D-lysine coated 384-well plate (Corning) at a density of 10,000 cells per well. The following day, TRPV4 expression is induced by adding 0.5 microg/mL tetracycline for 20-24 hours. On the day of the experiment, the media is removed and replaced with 40 microL of dye loading buffer [1 microM Fluo-4 AM (Invitrogen), 0.01% Pluronic F-127, and 20 mM HEPES in Hanks' balanced salt solutions (HBSS; Invitrogen)] and then the cells are incubated for 60 minutes at 25° C. Dye is then removed and replaced with 20 microL of assay buffer (20 mM HEPES in HBSS). Five minutes prior to the fluorescence measurement, 10 microL of test compound is added to the cells. Using the FDSS instrument (Hamamatsu Photonics), 30 microL of hypotonic solution (90 mM D-mannitol and 1.26 mM CaCl2 in ultrapure water) is added 30 seconds after the start of measurement. The calcium flux signal is recorded for a total of 4.5 minutes.

[1] = Flp-In T-REx 293 cells expressing human TRPV4, examples listed under heading 'Human IC50<50 nM'
[2] = Flp-In T-REx 293 cells stably expressing human TRPV4, compounds listed by potency bin (<10 nM Tables 96-1/96-2, <3 nM Table 97)

T1 sequence (Q9HBA0 whole entry): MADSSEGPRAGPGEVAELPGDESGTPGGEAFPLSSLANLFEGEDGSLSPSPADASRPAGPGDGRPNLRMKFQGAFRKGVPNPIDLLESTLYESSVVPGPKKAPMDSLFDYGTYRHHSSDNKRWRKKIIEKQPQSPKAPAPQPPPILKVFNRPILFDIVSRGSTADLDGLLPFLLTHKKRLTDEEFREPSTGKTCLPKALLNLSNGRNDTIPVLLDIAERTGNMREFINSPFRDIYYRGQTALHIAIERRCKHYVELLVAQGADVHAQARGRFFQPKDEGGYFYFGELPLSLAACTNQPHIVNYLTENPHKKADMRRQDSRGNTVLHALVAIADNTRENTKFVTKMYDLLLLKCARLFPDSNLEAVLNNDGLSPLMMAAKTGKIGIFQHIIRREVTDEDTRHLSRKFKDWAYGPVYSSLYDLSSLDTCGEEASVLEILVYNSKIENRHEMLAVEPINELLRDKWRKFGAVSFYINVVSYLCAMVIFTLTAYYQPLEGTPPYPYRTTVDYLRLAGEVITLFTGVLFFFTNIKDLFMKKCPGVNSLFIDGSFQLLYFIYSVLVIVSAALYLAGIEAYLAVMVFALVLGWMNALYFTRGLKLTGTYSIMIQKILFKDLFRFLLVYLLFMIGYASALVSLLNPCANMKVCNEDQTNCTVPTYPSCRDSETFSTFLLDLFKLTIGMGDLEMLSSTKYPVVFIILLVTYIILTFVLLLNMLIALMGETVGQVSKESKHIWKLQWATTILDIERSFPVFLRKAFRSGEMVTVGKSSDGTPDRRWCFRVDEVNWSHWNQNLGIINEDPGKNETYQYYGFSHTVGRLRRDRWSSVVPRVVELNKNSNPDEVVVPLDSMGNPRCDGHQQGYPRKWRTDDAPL

## O=C(C(O)c1cccc(Cl)c1F)N1CCCc2nc(C3(c4cncc(-c5ccccc5)c4)CC3)[nH]c(=O)c2C1 (centres unmarked) [19-11]
[1]
  IC50: < 50 nM
[2]
  IC50: < 3 nM

## N#Cc1ccc(-c2cccc([C@@H](O)C(=O)N3CCCc4nc(C5(c6cccc(Cl)c6)CC5)[nH]c(=O)c4C3)c2)cc1 [50-20]
[1]
  IC50: < 50 nM
[2]
  IC50: < 3 nM

## O=C(C(O)c1cccc(S(F)(F)(F)(F)F)c1)N1CCc2nc(C3(c4cccc(F)c4)CC3)[nH]c(=O)c2C1 (centres unmarked) [14-23]
[1]
  IC50: < 50 nM

## O=C([C@H](O)c1cccc(C(F)(F)F)c1)N1CCCc2nc(C3(c4cccc(-c5nc6ccccc6s5)c4)CC3)[nH]c(=O)c2C1 [17-97]
[1]
  IC50: < 50 nM
[2]
  IC50: < 10 nM

## O=C(N1CCCc2nc(C3(c4cccc(F)c4)CC3)[nH]c(=O)c2C1)C(F)(F)c1cccc(C(F)(F)F)c1 [20-3]
[1]
  IC50: < 50 nM
[2]
  IC50: < 3 nM

## O=C(Cc1cccc(-c2ccc(C(F)(F)F)cc2)c1)N1CCc2nc(C3(c4cccc(Cl)c4)CC3)[nH]c(=O)c2C1 [14-117]
[1]
  IC50: < 50 nM

## CC(C)c1csc(C2(c3nc4c(c(=O)[nH]3)CN(C(=O)[C@H](O)c3cccc(-c5ccnc(C(F)(F)F)c5)c3)CCC4)CC2)c1 [54-6]
[1]
  IC50: < 50 nM
[2]
  IC50: < 3 nM

## O=C(c1ccccc1)N1CCC(c2cccc(C3(c4nc5c(c(=O)[nH]4)CN(C(=O)[C@H](O)c4cccc(C(F)(F)F)c4)CCC5)CC3)c2)CC1 [31-10]
[1]
  IC50: < 50 nM
[2]
  IC50: < 10 nM

## O=C(C(O)c1cccc(-c2cccc(OC(F)(F)F)c2)c1)N1CCc2nc(C3(c4cccs4)CC3)[nH]c(=O)c2C1 (centres unmarked) [15-28]
[1]
  IC50: < 50 nM
[2]
  IC50: < 3 nM

## CC(C)c1cccc(C2(c3nc4c(c(=O)[nH]3)CN(C(=O)Cc3cccc(-c5cccc(C(F)(F)F)c5)c3)CCC4)CC2)c1 [31-13]
[1]
  IC50: < 50 nM
[2]
  IC50: < 10 nM

## O=C([C@H](O)c1cccc(Cl)c1)N1CCc2nc(C3(c4ccc(F)cc4)CC3)[nH]c(=O)c2C1 [3-22]
[1]
  IC50: < 50 nM

## O=C([C@H](O)c1cccc(C(F)(F)F)c1)N1CCCc2nc(C3(c4cccc(-c5ccc(OCc6ccccn6)cc5)c4)CC3)[nH]c(=O)c2C1 [42-43]
[1]
  IC50: < 50 nM
[2]
  IC50: < 3 nM

## CS(=O)(=O)c1cccc(-c2cccc(C3(c4nc5c(c(=O)[nH]4)CN(C(=O)[C@H](O)c4cccc(C(F)(F)F)c4)CCC5)CC3)c2)c1 [42-15]
[1]
  IC50: < 50 nM
[2]
  IC50: < 3 nM

## O=C([C@H](O)c1cccc(-c2ccc(Cl)c(Cl)c2)c1)N1CCCc2nc(C3(c4ccccc4)CC3)[nH]c(=O)c2C1 [49-40]
[1]
  IC50: < 50 nM
[2]
  IC50: < 3 nM

## O=C(C(O)c1cccc(-c2cccc(OCc3ccccc3)c2)c1)N1CCc2nc(C3(c4ccccc4)CC3)[nH]c(=O)c2C1 (centres unmarked) [44-119]
[1]
  IC50: < 50 nM
[2]
  IC50: < 10 nM

## O=C([C@H](O)c1cccc(-c2ccc(Cl)c(OC(F)(F)F)c2)c1)N1CCCc2nc(C3(c4ccccc4)CC3)[nH]c(=O)c2C1 [49-41]
[1]
  IC50: < 50 nM
[2]
  IC50: < 10 nM

## CC(C)c1cncc(C2(c3nc4c(c(=O)[nH]3)CN(C(=O)[C@H](O)c3cccc(-c5ccc(C(F)(F)F)nc5)c3)CC4)CC2)c1 [47-5]
[1]
  IC50: < 50 nM
[2]
  IC50: < 10 nM

## O=C(C(O)c1cccc(-c2ccc(Cl)cc2)c1)N1CCCc2nc(C3(c4cccc(F)c4)CC3)[nH]c(=O)c2C1 (centres unmarked) [17-34]
[1]
  IC50: < 50 nM
[2]
  IC50: < 10 nM

## CC(C)(C)CC(=O)N1CCC(c2cccc(C3(c4nc5c(c(=O)[nH]4)CN(C(=O)[C@H](O)c4cccc(C(F)(F)F)c4)CCC5)CC3)c2)CC1 [31-12]
[1]
  IC50: < 50 nM
[2]
  IC50: < 10 nM

## O=C([C@H](O)c1cccc(-c2cccc(F)c2)c1)N1CCCc2nc(C3(c4ccccc4)CC3)[nH]c(=O)c2C1 [49-12]
[1]
  IC50: < 50 nM
[2]
  IC50: < 10 nM

## CC(C)Oc1cccc(-c2cccc(C(F)(F)C(=O)N3CCCc4nc(C5(c6ccccc6)CC5)[nH]c(=O)c4C3)c2)c1 [58-3]
[1]
  IC50: < 50 nM
[2]
  IC50: < 10 nM

## O=C([C@H](O)c1cccc(-c2ccc(Cl)cc2)c1)N1CCc2nc(C3(c4ccccc4)CC3)[nH]c(=O)c2C1 [44-86]
[1]
  IC50: < 50 nM
[2]
  IC50: < 10 nM
